Starred links: 1 amine or outer side, 2 acyl side, 3 side chain; linkers in the order of their positions; H or OH if unused. Positions of bridges follow the written chain, without caps; N, C: chain ends. Non-standard residues stand in square brackets, D forms with d. Residues, ends and D or L forms follow the SMILES beside them. *: point of attachment. hPhe(3,5-F2-4-CF3) = N[C@@H](CCc1cc(F)c(C(F)(F)F)c(F)c1)C(=O)O; hPhe(3-Cl-4-CF3) = N[C@@H](CCc1ccc(C(F)(F)F)c(Cl)c1)C(=O)O; NMePhe(4-CF3) = CN[C@@H](Cc1ccc(C(F)(F)F)cc1)C(=O)O; Thiomorpholino(1,1-dioxo) = O=S1(=O)CCN(*)CC1; X50 = O=C([C@H](Cc1cc(F)cc(Br)c1)N[*:1])[*:2]; NEtPhe(4-Me) = CCN[C@@H](Cc1ccc(C)cc1)C(=O)O; NMeAbu(4,4,4-F3) = CN[C@@H](CC(F)(F)F)C(=O)O; NMePhe(4-Cl) = CN[C@@H](Cc1ccc(Cl)cc1)C(=O)O; NMePhe(4-Me) = CN[C@@H](Cc1ccc(C)cc1)C(=O)O; X59 = O=C([C@H](Cc1cc(I)ccc1Cl)N[*:1])[*:2]; X42 = Cc1ccc(I)cc1C[C@H](N[*:1])C(=O)[*:2]; NMedβ3hAla = C[C@H](CC(=O)[*:2])N(C)[*:1]; NMeGly(cPent) = CN[C@H](C(=O)O)C1CCCC1; Phe(3-I) = N[C@@H](Cc1cccc(I)c1)C(=O)O; Pro(4,4-F2) = O=C(O)[C@@H]1CC(F)(F)CN1; NMeGly(cBu) = CN[C@H](C(=O)O)C1CCC1; NMeY = CN[C@@H](Cc1ccc(O)cc1)C(=O)O; NMeCha = CN[C@@H](CC1CCCCC1)C(=O)O; NMeChg = CN[C@H](C(=O)O)C1CCCCC1; NMeD = CN[C@@H](CC(=O)O)C(=O)O; NMeL = CN[C@@H](CC(C)C)C(=O)O; Chg = N[C@H](C(=O)O)C1CCCCC1; NMeV = CN[C@H](C(=O)O)C(C)C; NMeAbu = CC[C@H](NC)C(=O)O; Morpholide = C1CN(*)CCO1; NMeA = CN[C@@H](C)C(=O)O; NMeAib = CNC(C)(C)C(=O)O; Nle = CCCC[C@H](N)C(=O)O; Piperidide = C1CCN(*)CC1; Pra = C#CC[C@H](N)C(=O)O; Pyrrolidide = C1CCN(*)C1; Ac5c = NC1(C(=O)O)CCCC1; Aze = O=C(O)[C@@H]1CCN1; Sar = CNCC(=O)O
target: T1, Kras and SOS1 (biotin-tagged human Kras loaded with GDP, His-tagged human SOS1) (Homo sapiens, UniProt P01116, G12D); experiment: Protein-protein interaction inhibition between Kras and SOS1 (KrasGl2D-SOS PPI) using AlphaScreen; format: binding; conditions: AlphaScreen; biotin-tagged human Kras loaded with GDP, His-tagged human SOS1; read-out: KRAS G12D-SOS PPI IC50
T1 construct: made in house; host or cells: E. coli (stated for Kras only)
T1 sequence (P01116 1-188 isoform P01116-2 G12D): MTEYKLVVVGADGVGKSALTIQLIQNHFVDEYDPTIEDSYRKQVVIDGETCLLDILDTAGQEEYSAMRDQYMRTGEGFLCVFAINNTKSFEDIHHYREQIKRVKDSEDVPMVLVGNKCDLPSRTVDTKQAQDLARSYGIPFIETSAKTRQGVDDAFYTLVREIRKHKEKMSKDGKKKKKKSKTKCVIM
Outline: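 Donor beads (nickel) hold His-SOS1; acceptor beads (streptavidin) hold biotin-Kras bound to GDP. Signal measured at 520-620 nm following 680 nm excitation.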

Compared with `CC[C@H](C)[C@@H]1NC(=O)[C@H](CC(C)C)N(C)C(=O)C[C@@H](C(=O)N2CCCCC2)N(C)C(=O)[C@H](C2CCCCC2)N(C)C(=O)C2(CCCC2)NC(=O)[C@@H]2CCCN2C(=O)[C@H](CCc2ccc(C(F)(F)F)c(Cl)c2)NC(=O)CN(C)C(=O)[C@H](CC2CCCCC2)N(C)C(=O)CN(C)C(=O)[C@H](C)N(C)C1=O` [Compound 1345] ([NMeL]I[NMeA][Sar][NMeCha][Sar][hPhe(3-Cl-4-CF3)]P[Ac5c][NMeChg][NMeD]-Piperidide; lactam N-11), `CC[C@H](C)[C@@H]1NC(=O)[C@H](CC(C)C)N(C)C(=O)C[C@@H](C(=O)N2CCCCC2)N(C)C(=O)[C@H](C2CCCCC2)NC(=O)C2(CCCC2)NC(=O)[C@@H]2CCCN2C(=O)[C@H](CCc2ccc(C(F)(F)F)c(Cl)c2)NC(=O)CN(C)C(=O)[C@H](CC2CCCCC2)N(C)C(=O)CN(C)C(=O)CN(C)C1=O` [Compound 1354] ([NMeL]I[Sar][Sar][NMeCha][Sar][hPhe(3-Cl-4-CF3)]P[Ac5c][Chg][NMeD]-Piperidide; lactam N-11) is 5.2-fold lower in IC50: 40 nM for the first, 7.7 nM for the second.

`CC[C@H](C)[C@@H]1NC(=O)[C@H](CC(C)C)N(C)C(=O)C[C@@H](C(=O)N(C)C)N(C)C(=O)[C@H](C2CCCC2)N(C)C(=O)C2(CCCC2)NC(=O)[C@@H]2CC(F)(F)CN2C(=O)[C@H](CCc2cc(F)c(C(F)(F)F)c(F)c2)NC(=O)CN(C)C(=O)[C@H](CC2CCCCC2)N(C)C(=O)[C@@H]2CCN2C(=O)[C@H](C)N(C)C1=O` [Compound 1346] ([NMeL]I[NMeA][Aze][NMeCha][Sar][hPhe(3,5-F2-4-CF3)][Pro(4,4-F2)][Ac5c][NMeGly(cPent)][NMeD]-NMe2; lactam N-11) and `CC[C@H](C)[C@@H]1NC(=O)[C@H](CC(C)C)N(C)C(=O)C[C@@H](C(=O)N2CCOCC2)N(C)C(=O)[C@H](C2CCCC2)N(C)C(=O)C2(CCCC2)NC(=O)[C@@H]2CCCN2C(=O)[C@H](CCc2cc(F)c(C(F)(F)F)c(F)c2)NC(=O)CN(C)C(=O)[C@H](Cc2ccc(C)cc2)N(CC)C(=O)[C@@H]2CCN2C(=O)[C@H](C)N(C)C1=O` [Compound 1368] ([NMeL]I[NMeA][Aze][NEtPhe(4-Me)][Sar][hPhe(3,5-F2-4-CF3)]P[Ac5c][NMeGly(cPent)][NMeD]-Morpholide; lactam N-11) are within 1.5-fold of each other in IC50: 0.6 nM for the first, 0.67 nM for the second.

Going from `CC[C@H](C)[C@@H]1NC(=O)[C@H](CC(C)C)N(C)C(=O)C[C@@H](C(=O)N2CCS(=O)(=O)CC2)NC(=O)[C@H](C(C)C)N(C)C(=O)C2(CCCC2)NC(=O)[C@@H]2CCCN2C(=O)[C@H](CCc2ccc(C(F)(F)F)c(Cl)c2)NC(=O)CN(C)C(=O)[C@H](CC2CCCCC2)N(C)C(=O)[C@@H]2CCN2C(=O)[C@H](C)N(C)C1=O` [Compound 1349] ([NMeL]I[NMeA][Aze][NMeCha][Sar][hPhe(3-Cl-4-CF3)]P[Ac5c][NMeV]D-{Thiomorpholino(1,1-dioxo)}; lactam N-11) to `CC[C@H](C)[C@@H]1NC(=O)[C@H](C2CCC2)N(C)C(=O)C[C@@H](C(=O)N2CCCC2)N(C)C(=O)[C@H](C2CCCCC2)N(C)C(=O)C2(CCCC2)NC(=O)[C@@H]2CC(F)(F)CN2C(=O)[C@H](CCc2ccc(C(F)(F)F)c(Cl)c2)NC(=O)CN(C)C(=O)[C@H](CC2CCCCC2)N(C)C(=O)CN(C)C(=O)CN(C)C1=O` [Compound 1363] ([NMeGly(cBu)]I[Sar][Sar][NMeCha][Sar][hPhe(3-Cl-4-CF3)][Pro(4,4-F2)][Ac5c][NMeChg][NMeD]-Pyrrolidide; lactam N-11), the IC50 falls from 150 nM to 0.57 nM (260-fold).

`C#CC[C@@H]1NC(=O)[C@H](Cc2cccc(I)c2)NC(=O)CN(C)C(=O)[C@H](Cc2ccc(OC)cc2)N(C)C(=O)[C@@H]2CCN2C(=O)[C@H](C)N(C)C(=O)[C@H]([C@@H](C)CC)NC(=O)[C@H](CC(C)C)N(C)C(=O)C[C@@H](C(=O)N2CCCCC2)N(C)C(=O)[C@H](CC(C)C)NC(=O)C(C)(C)N(C)C1=O` [Compound 1350] ([NMeL]I[NMeA][Aze][NMeY](Me)[Sar][Phe(3-I)][Pra][NMeAib]L[NMeD]-Piperidide; lactam N-11) and `CCCC[C@@H]1NC(=O)[C@H](Cc2cc(I)ccc2C)NC(=O)CN(C)C(=O)[C@H](Cc2ccc(OC)cc2)N(C)C(=O)[C@@H]2CCN2C(=O)[C@H](C)N(C)C(=O)[C@H]([C@@H](C)CC)NC(=O)[C@H](CC)N(C)C(=O)C[C@@H](C(=O)N2CCCCC2)N(C)C(=O)[C@H](CC(C)C)NC(=O)C(C)(C)N(C)C1=O` [Compound 1358] ([NMeAbu]I[NMeA][Aze][NMeY](Me)[Sar][X42][Nle][NMeAib]L[NMeD]-Piperidide; lactam N-11) are within 1.5-fold of each other in IC50: 17 nM for the first, 19 nM for the second.

Compared with `CCCC[C@@H]1NC(=O)[C@H](Cc2cc(I)ccc2Cl)NC(=O)CN(C)C(=O)[C@H](Cc2ccc(Cl)cc2)N(C)C(=O)CN(C)C(=O)CN(C)C(=O)[C@H]([C@@H](C)CC)NC(=O)[C@H](CC(C)C)N(C)C(=O)C[C@@H](C(=O)N2CCCCC2)N(C)C(=O)[C@H](CC(C)C)NC(=O)C(C)(C)N(C)C1=O` [Compound 1352] ([NMeL]I[Sar][Sar][NMePhe(4-Cl)][Sar][X59][Nle][NMeAib]L[NMeD]-Piperidide; lactam N-11), `C#CC[C@@H]1NC(=O)[C@H](Cc2cccc(I)c2)NC(=O)CN(C)C(=O)[C@H](Cc2ccc(C(F)(F)F)cc2)N(C)C(=O)CN(C)C(=O)CN(C)C(=O)[C@H]([C@@H](C)CC)NC(=O)[C@H](CC(C)C)N(C)C(=O)C[C@@H](C(=O)N2CCCCC2)N(C)C(=O)[C@H](CC(C)C)NC(=O)C(C)(C)N(C)C1=O` [Compound 1361] ([NMeL]I[Sar][Sar][NMePhe(4-CF3)][Sar][Phe(3-I)][Pra][NMeAib]L[NMeD]-Piperidide; lactam N-11) is 4.6-fold lower in IC50: 110 nM for the first, 24 nM for the second.

Compared with `CC[C@H](C)[C@@H]1NC(=O)[C@H](CC(F)(F)F)N(C)C(=O)C[C@@H](C(=O)N2CCCC2)N(C)C(=O)[C@H](C2CCCCC2)N(C)C(=O)C2(CCCC2)NC(=O)[C@@H]2CC(F)(F)CN2C(=O)[C@H](CCc2ccc(C(F)(F)F)c(Cl)c2)NC(=O)CN(C)C(=O)[C@H](CC2CCCCC2)N(C)C(=O)CN(C)C(=O)CN(C)C1=O` [Compound 1357] ([NMeAbu(4,4,4-F3)]I[Sar][Sar][NMeCha][Sar][hPhe(3-Cl-4-CF3)][Pro(4,4-F2)][Ac5c][NMeChg][NMeD]-Pyrrolidide; lactam N-11), `CCCC[C@@H]1NC(=O)[C@H](Cc2cc(F)cc(Br)c2)NC(=O)CN(C)C(=O)[C@H](Cc2ccc(OC)cc2)N(C)C(=O)[C@@H]2CCN2C(=O)[C@H](C)N(C)C(=O)[C@H]([C@@H](C)CC)NC(=O)[C@H](CC)N(C)C(=O)C[C@@H](C(=O)N2CCCCC2)N(C)C(=O)[C@H](CC(C)C)NC(=O)C(C)(C)N(C)C1=O` [Compound 1372] ([NMeAbu]I[NMeA][Aze][NMeY](Me)[Sar][X50][Nle][NMeAib]L[NMeD]-Piperidide; lactam N-11) is 33-fold higher in IC50: 0.52 nM for the first, 17 nM for the second. The first is the more potent here.

In the case of `CC[C@H](C)[C@@H]1NC(=O)[C@H](C)N(C)C(=O)C[C@@H](C)N(C)C(=O)[C@H](CC(C)C)NC(=O)C(C)(C)N(C)C(=O)[C@H](CC(C)C)NC(=O)[C@H](CCc2ccc(C(F)(F)F)c(Cl)c2)NC(=O)CN(C)C(=O)[C@H](Cc2ccc(C)cc2)N(C)C(=O)[C@@H]2CCN2C(=O)CN(C)C1=O` [Compound 1377] (cyclo([Aze][NMePhe(4-Me)][Sar][hPhe(3-Cl-4-CF3)]L[NMeAib]L[NMedβ3hAla][NMeA]I[Sar])), the IC50 is reported as 5.8 nM.

— patent publication US12371454B2, “Cyclic peptide compound having Kras inhibitory action” (priority 2019, dated 2025)
